Counter-ions that a name gives are not always drawn.
Assay: Acute toxicity test
Details: mouse, in vivo
Protocol: With 4 to 5 ddy-strain male mice of 6 weeks old as one group, the compound of the present invention was orally administered as a suspension in 1% tragacanth solution, and observation was conducted for 7 days and the number of dead mice was examined to obtain the results shown in Table 3.

Row | SMILES | LD50 at 168 h (po) [mg/kg] | LD50 at 168 h (oral, suspension in 1% tragacanth, male ddy mice, 6 weeks old, observed for 7 days) [mg/kg]
1 | O=C(O)CCC(=O)Nc1cccc(/C=C/c2ccc3ccccc3n2)c1 [compound 32, 2-[trans-3-(3-carboxypropanamide)styryl]quinoline.sodium salt] | > 1000 | 
2 | O=C(O)C=CC(=O)Nc1cccc(C=Cc2ccc3ccccc3n2)c1 [compound 45] |  | > 1000
